As a reminder, the IC50 is the concentration at which inhibition is half-maximal. For orientation: MRT means a mean duration of stay, worked out from the concentration-time curve.

For data set [1], the system named is BaF3 FGFR2-BICC1 V564F cells. Put plainly: CellTiter-Glo cell proliferation inhibition, BaF3 FGFR2-BICC1 V564F. In kind it is cell-based. As to conditions: Mus musculus, 72 h, read-out: BaF3 FGFR2-BICC1 V564F inhibitory activity IC50. As for the experimental part: To evaluate inhibitory effects of the compounds on the proliferation of NCI-H716, SNU-16 and BaF3-FGFR2-BICC1 V564F cells by cell proliferation inhibition experiments.
CellTiter-Glo method was used to detect inhibitory effects of the compounds on the proliferation of NCI-H716, SNU-16 and BaF3 FGFR2-BICC1 V564F cells. The highest detection concentration of the compounds was 1000 nM, which was diluted in 3 folds, with a total of 9 concentrations (1000 nM to 0.15 nM). After the cells were plated at an appropriate density, compounds were added the next day and incubated for 72 h before detection using the […] detection kit.
1) Inhibition rate (%): Inhibition rate %=[(mean value in positive control well−value in sample well)/(mean value in positive control well−mean value in negative control well)]×100, wherein the positive control well was a reaction well without a compound […], and the negative control well was a reaction wells without an enzyme.
(§1) 2) Curve fitting: Log(inhibitor) vs. response—Variable slope (four parameters) in GraphPad Prism 6 was used for fitting equation analysis of the compound concentration and the corresponding inhibition rate, and the curve was fitted to obtain the IC50 values of the compounds.

The next data set has as its target FGFR2 V564F (Homo sapiens (Human), UniProt P21802, V564F). Put plainly: TR-FRET kinase inhibition assay, FGFR2 V564F. It is filed as biochemical. Particulars: ATP Km concentration (20 μM). As for the experimental part:
(§2) To measure the IC50 values of the compounds against FGFR1, FGFR2, FGFR3, FGFR4, and FGFR2 V564F at ATP Km concentrations by TR-FRET method.
(§3) TR-FRET (time-resolved fluorescence resonance energy transfer) method was used to detect the inhibitory activity of the compounds on FGFR1, FGFR2, FGFR3, FGFR4, and FGFR2 V564F kinase region fragments. The highest detection concentration of the compounds in 5 kinase experiments was 1000 nM, which was diluted in 3 folds, with a total of 11 concentrations (1000 nM to 0.017 nM). A kinase buffer (50 mM HEPES pH 7.5, 1 mM EGTA, 10 mM MgCl2, 2 mM DTT, and 0.01% Tween-20) was used to prepare 4× enzyme solution, 4× compound solutions diluted in gradient, and a 2×ATP/Peptide substrate solution. To a 384-well plate, 2.5 μL of enzyme solution and 2.5 μL of diluted […] compound solution were added, and 5 μL of 2×ATP/Peptide substrate solution was then added. After reacting at room temperature for 60 minutes for FGFR1, FGFR2, FGFR3, and FGFR2 V564F kinases, and 120 minutes for FGFR4 kinase, 10 μL of a 2× termination and detection mixed liquid prepared with 1×LANCE detection buffer with an EDTA concentration of 20 mM and a Europium-anti-phosphotyrosine (PT66) concentration of 2 nM was added to each well of the plate. After reacting at room temperature for 60 minutes for FGFR1, FGFR2, FGFR3, and FGFR4, and 30 minutes for FGFR2 V564F, the fluorescence signal value in each well of the plate was measured by a microplate reader.
(§4) 1) Inhibition rate (%): Calculation was performed on the raw data (665 nm/620 nm reading ratio) according to the following formula to obtain the inhibition rate. Inhibition rate %=[(mean value in positive control well−value in sample well)/(mean value in positive control well−mean value in negative control well)]×100, wherein the positive control well was a reaction well without a compound […], and the negative control well was a reaction wells without an enzyme.
as §1
In general terms: Time-resolved FRET reads energy transfer from a long-lived donor to a nearby acceptor.

The next data set deals with FGFR2 (Homo sapiens (Human), UniProt P21802). The data set is described as follows: TR-FRET kinase inhibition assay, FGFR2. Particulars: ATP Km concentration (30 μM). It is filed as biochemical. As to the method:
as §2, §3, §4, §1

Data set [2] in a line: Pharmacokinetic experiment in SD rats after oral administration. Particulars: 5 mg/kg, plasma. In kind it is in vivo. As to the method:
To study the pharmacokinetic behavior of the compounds of the present invention in the rat body (plasma) after oral administration at a dose of 5 mg/kg using SD rats as test animals.
3 SD rats/group, male, from Shanghai Jiesijie Experimental Animal Co., Ltd., animal production license number (SCXK (Shanghai) 2013-0006 N0.311620400001794).
PO, 10% solutol HS15-0.5% CMC-Na was dissolved by ultrasound and prepared into a clear solution or homogeneous suspension.
3 SD rats/group, male; p.o. respectively at a dose of 5 mg/kg and an administration volume of 10 mL/kg after the […] were fasted overnight.
After oral administration to rats, at 0.25, 0.5, 1, 2, 4, 6, 8 and 24 hours, 0.2 mL of blood was collected from the jugular vein, placed in an EDTA-K2 test tube, centrifuged at 6000 rpm for 6 min at 4° C. to separate the plasma, which was stored at −80° C.
1) 100 μL of acetonitrile was added to 20 μL of plasma sample for pelleting, and it was mixed and centrifuged at 3500×g for 5-20 min.
2) The treated supernatant solution was taken and subjected to LC/MS/MS to analyze the concentrations of the test compounds. LC/MS/MS analysis instrument: AB Sciex API 4000 Qtrap.
• Liquid phase conditions: Shimadzu LC-20AD pump • Chromatographic column: Waters Xbridge C18 5 μm, 4.6×50 mm mobile phase: liquid A was 0.1% aqueous formic acid solution, and liquid B was methanol • Flow rate: 1.0 mL/min • Elution time: 0-4.0 min, the eluent was as follows: […]

Molecules are shown by their SMILES.

Chain of FGFR2 (P21802 481-770): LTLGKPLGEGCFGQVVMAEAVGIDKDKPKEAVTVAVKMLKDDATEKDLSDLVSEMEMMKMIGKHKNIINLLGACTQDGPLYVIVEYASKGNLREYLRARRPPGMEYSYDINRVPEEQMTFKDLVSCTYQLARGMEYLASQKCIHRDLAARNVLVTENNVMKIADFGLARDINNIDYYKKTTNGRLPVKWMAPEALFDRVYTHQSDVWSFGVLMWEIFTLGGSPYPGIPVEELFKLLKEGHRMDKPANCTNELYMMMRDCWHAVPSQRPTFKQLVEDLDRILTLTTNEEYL
Chain of FGFR2 V564F (P21802 481-770 V564F): as the sequence (P21802 481-770) above, with V84F counted along it

Take `C=CC(=O)N1CC[C@H](n2nc(C#Cc3cc4ncn(C5CC5)c4cc3F)c3c(N)ncc(C(=O)C(C)C)c32)C1` [Example 50]: the concentration for half-maximal inhibition (IC50) in data set [1] was 2.1 nM; against FGFR2 V564F, 1 nM; on FGFR2, 2.6 nM.

At FGFR2 V564F, `C=CC(=O)N1CC[C@H](n2nc(C#Cc3ccc4c(c3)ncn4C3CC3)c3c(N)ncc(C(=O)C(C)C)c32)C1` [Example 40] returned an IC50 of 1.9 nM.

`C=CC(=O)N1CC[C@H](n2nc(C#Cc3cc4ncn(C5CC5)c4cc3F)c3c(N)ncc(C4CC4)c32)C1` [Example 52, (S)-1-(3-(4-amino-7-cyclopropyl-3-((1-cyclopropyl-6-fluoro-1H-benzo[d]imidazol-5-yl)alkynyl)-1H-pyrazolo[4,3-c]pyridin-1-yl)pyrrolidin-1-yl)prop-2-en-1-one] came in with an IC50 against FGFR2 V564F of 1.8 nM.

Consider `C=CC(=O)N1CC[C@H](n2nc(C#Cc3cc4ncn(CC)c4cc3F)c3c(N)ncc(-c4cscn4)c32)C1` [Example 62, (S)-1-(3-(4-amino-3-((1-ethyl-6-fluoro-1H-benzo[d]imidazol-5-yl)ethynyl)-7-(thiazol-4-yl)-1H-pyrazolo[4,3-c]pyridin-1-yl)pyrrolidin-1-yl)prop-2-en-1-one], for which the IC50 against FGFR2 V564F worked out at 1.2 nM; against FGFR2, 2.4 nM.

As for `C=CC(=O)N1CC[C@H](n2nc(C#Cc3cc4ncn(C5CC5)c4cc3Cl)c3c(N)ncc(C(=O)C(C)C)c32)C1` [Example 47], the figures for the IC50 (in data set [1]; on FGFR2 V564F) were 0.5 nM and 1 nM, respectively.

On to `C=CC(=O)N1CC[C@H](n2nc(C#Cc3ccc4c(c3)nc(C)n4C3CC3)c3c(N)ncc(C(C)=O)c32)C1` [Example 53, (S)-1-(3-(7-acetyl-4-amino-3-((1-cyclopropyl-2-methyl-1H-benzo[d]imidazol-5-yl)ethynyl)-1H-pyrazolo[4,3-c]pyridin-1-yl)pyrrolidin-1-yl)prop-2-en-1-one], for which the IC50 in data set [1] amounted to 4.9 nM; on FGFR2 V564F, 1.9 nM; at FGFR2, 3.5 nM.

`C=CC(=O)N1CC[C@H](n2nc(C#Cc3cc4ncn(C5CC5)c4cc3Cl)c3c(N)ncc(-c4ccn(C)n4)c32)C1` [Example 43, (S)-1-(3-(4-amino-3-((6-chloro-1-cyclopropyl-1H-benzo[d]imidazol-5-yl)ethynyl)-7-(1-methyl-1H-pyrazol-3-yl)-1H-pyrazolo[4,3-c]pyridin-1-yl)pyrrolidin-1-yl)prop-2-en-1-one] registered an IC50 against FGFR2 V564F of 1.1 nM.

Take `C=CC(=O)N1CC[C@H](n2nc(C#Cc3ccc4c(c3)ncn4CC)c3c(N)ncc(C(=O)C(C)C)c32)C1` [Example 59]: the IC50 stood at 4 nM in data set [1], 1.1 nM against FGFR2 V564F and 3.4 nM against FGFR2.

For the compound `C=CC(=O)N1CC[C@H](n2nc(C#Cc3cc4ncn(C)c4cc3F)c3c(N)nccc32)C1` [A, reference compound], the IC50 in data set [1] was 7.4 nM; at FGFR2 V564F, 6.1 nM; against FGFR2 it was 12.8 nM.

For `C=CC(=O)N1CC[C@H](n2nc(C#Cc3cc4ncn(C5CC5)c4cc3F)c3c(N)ncc(C(=O)CC)c32)C1` [Example 48, (S)-1-(3-(4-amino-3-((1-cyclopropyl-6-fluoro-1H-benzo[d]imidazol-5-yl)ethynyl)-7-propionyl-1H-pyrazolo[4,3-c]pyridin-1-yl)pyrrolidin-1-yl)prop-2-en-1-one], the values for the IC50 (in data set [1]; on FGFR2 V564F; against FGFR2) were 1.4 nM, 0.8 nM and 1.7 nM, respectively. The AUC(0-t) in data set [2] (male, Sprague-Dawley (SD), rat, po, read-out: Area under the curve AUC0-t) was determined as 4120 ng·h/mL. The AUC(0-inf) in data set [2] (male, Sprague-Dawley (SD), rat, po, read-out: Area under the curve AUC0-∞) was 4150 ng·h/mL. In addition, the half-life in data set [2] (male, Sprague-Dawley (SD), rat, po, read-out: Half-life t1/2 (converted)) was 234 min. Further, in data set [2] (male, Sprague-Dawley (SD), rat, po, read-out: Mean residence time MRT), the mean residence time (MRT) stood at 4.2 h. For the same compound, the Cmax in data set [2] (male, Sprague-Dawley (SD), rat, po, read-out: Plasma concentration Cmax) was determined as 795 ng/mL. Moreover, the Time to peak tmax in data set [2] (p.o.) was 2 h.

`C=CC(=O)N1CC[C@H](n2nc(C#Cc3cc4ncn(C)c4cc3F)c3c(N)ncc(C4CC4)c32)C1` [Example 20, (S)-1-(3-(4-amino-7-cyclopropyl-3-((6-fluoro-1-methyl-1H-benzo[d]imidazol-5-yl)ethynyl)-1H-pyrazolo[4,3-c]pyridin-1-yl)pyrrolidin-1-yl)prop-2-en-1-one]: on FGFR2 V564F, the IC50 was determined as 2.8 nM.

With `C=CC(=O)N1CC[C@H](n2nc(C#Cc3cc4ncn(C)c4cc3Cl)c3c(N)ncc(C(C)=O)c32)C1` [Example 67, (S)-1-(3-(7-acetyl-4-amino-3-((6-chloro-1-methyl-1H-benzo[d]imidazol-5-yl)ethynyl)-1H-pyrazolo[4,3-c]pyridin-1-yl)pyrrolidin-1-yl)prop-2-en-1-one], the half-maximal inhibitory concentration (IC50) (in data set [1]; against FGFR2 V564F) was 1.6 nM throughout.

As for `C=CC(=O)N1CC[C@H](n2nc(C#Cc3ccc4oc(C5CC5)nc4c3)c3c(N)ncnc32)C1` [B, reference compound], the IC50 in data set [1] worked out at 11.5 nM; against FGFR2 V564F, 18.4 nM.

At FGFR2 V564F, `C=CC(=O)N1CC[C@H](n2nc(C#Cc3cc4ncn(C5CC5)c4cc3F)c3c(N)ncc(C)c32)C1` [Example 51, (S)-1-(3-(4-amino-3-((1-cyclopropyl-6-fluoro-1H-benzo[d]imidazol-5-yl)ethynyl)-7-methyl-1H-pyrazolo[4,3-c]pyridin-1-yl)pyrrolidin-1-yl)prop-2-en-1-one] came in with an IC50 of 3.3 nM.

Consider `C=CC(=O)N1CC[C@H](n2nc(C#Cc3cc4ncn(C)c4cc3F)c3c(N)ncc(-c4cscn4)c32)C1` [Example 14, 1-[(3S)-3-[4-amino-3-[2-(6-fluoro-1-methyl-benzo[d]imidazol-5-yl)ethynyl]-7-thiazol-4-yl-pyrazolo[4,3-c]pyridin-1-yl]pyrrolidin-1-yl]-2-propen-1-one], for which the IC50 against FGFR2 V564F was found to be 1.3 nM; against FGFR2, 2.4 nM.

For the compound `C=CC(=O)N1CC[C@H](n2nc(C#Cc3ccc4c(c3)ncn4CC)c3c(N)ncc(C(C)=O)c32)C1` [Example 56, (S)-1-(3-(7-acetyl-4-amino-3-((1-ethyl-1H-benzo[d]imidazol-5-yl)ethynyl)-1H-pyrazolo[4,3-c]pyridin-1-yl)pyrrolidine-1-methyl)prop-2-en-1-one], the IC50 in data set [1] is 3.5 nM; at FGFR2 V564F, 0.7 nM; on FGFR2, 1.8 nM.

`C=CC(=O)N1CC[C@H](n2nc(C#Cc3ccc4c(c3)ncn4C3CC3)c3c(N)ncc(-c4ccn(C)n4)c32)C1` [Example 42, (S)-1-(3-(4-amino-3-((1-cyclopropyl-1H-benzo[d]imidazol-5-yl)ethynyl)-7-(1-methyl-1H-pyrazol-3-yl)-1H-pyrazolo[4,3-c]pyridin-1-yl)pyrrolidine-1-methyl)prop-2-en-1-one] showed an IC50 against FGFR2 V564F of 3.9 nM.

These data come from patent publication US20250152564A1, “PROPYLENE KETONE-CONTAINING BIOINHIBITOR, PREPARATION METHOD THEREFOR, AND USE THEREOF” (SHANGHAI HANSOH BIOMEDICAL CO., LTD., priority 2022, published 2025).
